The structures appear in SMILES notation.

In the experiment the target is T1, serotonin reuptake (Rattus norvegicus, UniProt P31652).
T1 construct: Synapses obtained from rat brains; from tissue; host or cells: rat brain synapses (synaptosomes)
Description: Serotonin (5-HT) reuptake, [3H]-serotonin uptake in rat brain synapses. It counts as biochemical. The following applies: 0.3 μg of extract/ml of solution.
Description: The uptake tests were carried out in vitro on synapses of rats.
The baseline activity is determined by incubating the same mixture for 15 minutes at 37° C. in the presence of 10 μM imipramine in order to block the reuptake.
Following the incubation, the samples are filtered rapidly in vacuo through glass-fibre filters (GB/B, Packard) and rinsed twice with ice-cold incubation buffer in order to eliminate free [^3H]-serotonin. The filters are dried and the retained radioactivity is measured by means of a scintillation counter (Topcount, Packard) using a scintillation cocktail (Microscint O, Packard).
The results are expressed as a percent inhibition of the control uptake of [^3H]-serotonin (see Table 1)

T1 sequence (P31652 whole entry): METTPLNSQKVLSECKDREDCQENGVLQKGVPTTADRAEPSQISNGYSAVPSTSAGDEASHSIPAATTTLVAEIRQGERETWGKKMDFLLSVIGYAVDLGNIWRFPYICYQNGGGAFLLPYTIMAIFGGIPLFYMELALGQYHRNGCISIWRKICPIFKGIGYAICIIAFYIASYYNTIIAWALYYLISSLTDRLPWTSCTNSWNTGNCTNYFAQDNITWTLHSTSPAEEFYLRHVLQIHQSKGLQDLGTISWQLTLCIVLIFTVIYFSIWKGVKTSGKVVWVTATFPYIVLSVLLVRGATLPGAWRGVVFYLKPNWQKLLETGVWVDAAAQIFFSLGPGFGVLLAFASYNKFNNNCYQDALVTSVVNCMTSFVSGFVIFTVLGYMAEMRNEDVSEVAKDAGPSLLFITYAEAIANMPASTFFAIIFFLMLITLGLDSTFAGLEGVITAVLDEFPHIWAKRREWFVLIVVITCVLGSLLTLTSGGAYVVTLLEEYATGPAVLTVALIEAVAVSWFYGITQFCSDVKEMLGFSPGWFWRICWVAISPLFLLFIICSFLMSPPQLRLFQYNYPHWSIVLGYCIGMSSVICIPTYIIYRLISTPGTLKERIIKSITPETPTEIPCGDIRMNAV

Take `C=C1CCC2C(C3C1CCC3(C)C(CC(C)C)c1c(O)c(C=O)c(O)c(C=O)c1O)C2(C)C` (stereo not shown) [Macrocarpal G, 5-(1-(3,3,11-trimethyl-7-methylene-tricyclo(6.3.0.0(2,4))undec-11-yl)-3-methylbutyl)-2,4,6-trihydroxybenzene-1,3-dicarbaldehyde]: the “% inhibition of serotonin reuptake” value came out at 103.8%.

For the origin of these results see patent publication US20090324754A1, “EUCALYPTUS EXTRACT, METHOD OF PREPARATION AND THERAPEUTIC USES THEREOF” (Pierre Fabre Medicament, priority 2006, published 2009).
